{"source": "patent US11026441B2", "about": "“Avocado flesh and/or skin extract rich in polyphenols and cosmetic, dermatological and nutraceutical compositions comprising same” (Laboratoires Expanscience, priority 2010, dated 2021)", "type_in_all_cases": "cell-based", "key": {"[1]": {"tested_on": "laminin-5 (subunit γ2) gene expression in normal human keratinocytes", "test": "Gene expression of laminin-5 (subunit γ2) in keratinocytes, real-time RT-PCR", "conditions": "5 ng/ml TGFβ1; 48 hours", "description": "(§1) Normal human keratinocytes were incubated for 48 hours in the presence of the avocado extract concentrated in polyphenols (AV) at concentrations of 0.001% and 0.005% (w/v of active material) or 5 ng/ml TGFβ1 (reference).\n(§2) The gene expression of MMP9 and laminin-5 (subunit γ2) was studied by real-time RT-PCR.\n(§3) The results were analyzed statistically by a one-factor ANOVA followed by a Dunnett's test: ns (not significant) p>0.05; *p<0.05; ***p<0.001."}, "[2]": {"tested_on": "MMP9 gene expression in normal human keratinocytes", "test": "Gene expression of MMP9 in keratinocytes, real-time RT-PCR", "conditions": "5 ng/ml TGFβ1; 48 hours", "description": "as §1, §2, §3"}, "[3]": {"tested_on": "IL8 production by human keratinocytes (NCTC-2544 cell line)", "test": "Production of IL8 by PMA-stimulated keratinocytes (ELISA)", "conditions": "10^−7 M dexamethasone, 0.1 μg/ml PMA", "description": "The cells were then treated with 0.1 μg/ml phorbol myristate acetate (PMA) for 24 hours, always in the presence of AV or the references.\nAt the end of the treatment, the quantities of interleukin 8 (IL8) and prostaglandin E2 (PGE2) secreted were measured by ELISA in the culture supernatants.\n(§4) The results were analyzed statistically by a Student's t-test."}, "[4]": {"tested_on": "histamine release by mastocytes", "test": "Release of histamine by mastocytes stimulated with substance P (ELISA)", "conditions": "10 nM calcium; 10 μM substance P", "description": "The mastocytes were then stimulated with 10 μM substance P for 15 minutes. At the end of incubation, the release of histamine was quantified by ELISA.\nas §4"}, "[5]": {"tested_on": "Normal human epidermal melanocytes", "test": "Melanin production by melanocytes stimulated by NDP-MSH", "conditions": "0.25 mM kojic acid; 10^−7 M NDP-MSH; 240 hours", "description": "After 240 hours of incubation, melanin was extracted from the cells and quantified by spectrophotometry. The results were analyzed statistically by a Student's t-test."}, "[6]": {"tested_on": "PGE2 production by human keratinocytes (NCTC-2544 cell line)", "test": "Production of PGE2 by PMA-stimulated keratinocytes (ELISA)", "conditions": "10^−6 M indomethacin, 0.1 μg/ml PMA"}}, "data": [{"molecule": "TGFβ1: 5 ng/ml TGFβ1 (reference) in keratinocyte migration marker test", "values": [{"measurement": "Laminin-5 gene expression (relative quantity)", "setting": "[1]", "result": 11.33}, {"measurement": "Laminin-5 gene expression, change versus control cells", "setting": "[1]", "result": "+1033% ***"}, {"measurement": "MMP9 gene expression (relative quantity)", "setting": "[2]", "result": 19.84}, {"measurement": "MMP9 gene expression, change versus control cells", "setting": "[2]", "result": "+1884% ***"}]}, {"molecule": "C[C@@H]1C[C@H]2[C@@H]3CCC4=CC(=O)C=C[C@]4(C)[C@@]3(F)[C@@H](O)C[C@]2(C)[C@@]1(O)C(=O)CO", "note": "[Dexamethasone, dexamethasone]", "values": [{"measurement": "IL8", "setting": "[3]", "result": "7.4 ± 0.8", "unit": "ng/mL"}, {"measurement": "inhibition at 0.1 µM", "setting": "[3]; Homo sapiens, NCTC-2544", "result": 85, "unit": "%"}]}, {"molecule": "[Ca+2]", "note": "[Calcium, calcium]", "values": [{"measurement": "Histamine", "setting": "[4]", "result": "21.8 ± 1.0", "unit": "ng/mL"}, {"measurement": "Inhibition of histamine release", "setting": "[4]", "result": "−85", "unit": "% p < 0.01"}]}, {"molecule": "O=c1cc(CO)occ1O", "note": "[Kojic acid, kojic acid]", "values": [{"measurement": "Change in melanin versus stimulated control", "setting": "[5]", "result": "−32", "unit": "% p < 0.001"}]}, {"molecule": "COc1ccc2c(c1)c(CC(=O)O)c(C)n2C(=O)c1ccc(Cl)cc1", "note": "[Indomethacin, indomethacin]", "values": [{"measurement": "PGE2", "setting": "[6]", "result": "0.039 ± 0.0", "unit": "ng/mL"}, {"measurement": "inhibition at 1 µM", "setting": "[6]; Homo sapiens, NCTC-2544", "result": 100, "unit": "%"}]}]}
